Measured values published in US8048825B2, “Haloalkylsulfonanilide derivatives or salt thereof, herbicide comprising the derivatives as active ingredient, and use of the herbicide” (Nihon Nohyaku Co., Ltd., priority 2006, dated 2011).

What was measured:
Assay type in all cases: in vivo
Lindernia procumbens [1] = assay: Herbicidal efficacy on paddy field weeds of pre-emergence stage (Pre), Test Example 1; details: 1000 g/ha as active ingredient, examined after 21 days
Method: (§1) 75 cm^2 plastic pots were filled with the soil (clay loam). Seeds of Scirpus juncoides, a paddy weed, were planted, and they were covered with 75 cm^3 of soil mixed with seeds of Lindernia procumbens and then filled with water depth of 5 cm. Next day, predetermined effective dosage (1000 g/ha as an active ingredient) of formulations comprising a compound of the present invention as an active ingredient which were prepared following Formulation Examples 1 to 4 was diluted with water and applied dropwise to the surface of the water. Then, they were brought up in a greenhouse and the herbicidal effect was examined after 21 days from the treatment by comparing with the result of an untreated group according to the following criteria. In the table, “-” means that the test was not performed.
(§2) Criteria for herbicidal efficacy (growth inhibiting degree) and phytotoxicity. • 5 . . . 100% herbicidal effect, phytotoxicity. • 4 . . . 90%-99% herbicidal effect, phytotoxicity. • 3 . . . 70%-89% herbicidal effect, phytotoxicity. • 2 . . . 40%-69% herbicidal effect, phytotoxicity. • 1 . . . 1%-39% herbicidal effect, phytotoxicity. • 0 . . . 0% herbicidal effect, phytotoxicity.

Scirpus juncoides [2] = assay: as above; details: 1000 g/ha as active ingredient, examined after 21 days
Method: as §1, §2

Lindernia procumbens [3] = assay: Herbicidal effect on paddy field weeds of post-emergence stage (Post), Test Example 2; details: one-leaf stage, 1000 g/ha as active ingredient, examined after 21 days
From the text: as §2
(§3) 75 cm^2 plastic pots were filled with the soil (clay loam). Seeds of Scirpus juncoides and Echinochloa crus-galli, paddy weeds, were planted, and they were covered with 75 cm^3 of soil mixed with seeds of Lindernia procumbens and then filled with water depth of 5 cm and they were brought up in a greenhouse. When the test plants were at one-leaf stage, predetermined effective dosage (1000 g/ha as an active ingredient) of formulations comprising a compound of the present invention as an active ingredient was applied to the pot water. Then, they were brought up in a greenhouse and the herbicidal efficacy was examined after 21 days from the treatment by comparing with the result of an untreated group according to the criteria of Test Example 1. In the table, “-” means that the test was not performed.

Scirpus juncoides [4] = assay: as above; details: one-leaf stage, 1000 g/ha as active ingredient, examined after 21 days
From the text: as §2, §3

SMILES	Lindernia procumbens pre (herbicidal effect) (Lindernia procumbens [1])	Scirpus juncoides pre (herbicidal effect) (Scirpus juncoides [2])	Lindernia procumbens post (herbicidal effect) (Lindernia procumbens [3])	Scirpus juncoides post (herbicidal effect) (Scirpus juncoides [4])
CC1(Cc2ccccc2F)CCN(Cc2ccccc2NS(=O)(=O)C(F)(F)F)C(=O)O1 (racemic) [Compound 1-461]	5 (100% herbicidal effect, phytotoxicity)	5 (100% herbicidal effect, phytotoxicity)	5 (100% herbicidal effect, phytotoxicity)	4 (90%-99% herbicidal effect, phytotoxicity)
CCCOC(=O)N(c1ccccc1CN1CCC(CC)(C(F)(F)F)OC1=O)S(=O)(=O)C(F)(F)F (stereo not drawn) [Compound 1-94]	5 (100% herbicidal effect, phytotoxicity)	5 (100% herbicidal effect, phytotoxicity)	5 (100% herbicidal effect, phytotoxicity)	4 (90%-99% herbicidal effect, phytotoxicity)
CCCCOC(=O)N(c1ccccc1CN1CCC(CC)(C(F)(F)F)OC1=O)S(=O)(=O)C(F)(F)F (stereo not drawn) [Compound 1-95]	5 (100% herbicidal effect, phytotoxicity)	5 (100% herbicidal effect, phytotoxicity)	5 (100% herbicidal effect, phytotoxicity)	4 (90%-99% herbicidal effect, phytotoxicity)
CCC1(CC)CCN(Cc2ccccc2N(C(=O)OCC(C)(C)C)S(=O)(=O)C(F)(F)F)C(=O)O1 [Compound 1-108]	4 (90%-99% herbicidal effect, phytotoxicity)	4 (90%-99% herbicidal effect, phytotoxicity)	4 (90%-99% herbicidal effect, phytotoxicity)	4 (90%-99% herbicidal effect, phytotoxicity)
CCC1(CC)CCN(Cc2ccccc2N(C(=O)OCC(C)C)S(=O)(=O)C(F)(F)F)C(=S)O1 [Compound 1-119]	4 (90%-99% herbicidal effect, phytotoxicity)	4 (90%-99% herbicidal effect, phytotoxicity)	4 (90%-99% herbicidal effect, phytotoxicity)	4 (90%-99% herbicidal effect, phytotoxicity)
CCCCC(CC)COC(=O)N(c1ccccc1CN1CCC2(CCCC2)OC1=O)S(=O)(=O)C(F)(F)F (stereo not drawn) [Compound 1-144]	4 (90%-99% herbicidal effect, phytotoxicity)	4 (90%-99% herbicidal effect, phytotoxicity)	4 (90%-99% herbicidal effect, phytotoxicity)	4 (90%-99% herbicidal effect, phytotoxicity)
CC(C)(C)COC(=O)N(c1ccccc1CN1CCC(C2CC2)(C2CC2)OC1=O)S(=O)(=O)C(F)(F)F [Compound 1-155]	4 (90%-99% herbicidal effect, phytotoxicity)	4 (90%-99% herbicidal effect, phytotoxicity)	4 (90%-99% herbicidal effect, phytotoxicity)	4 (90%-99% herbicidal effect, phytotoxicity)
CC1(c2ccccc2)CCN(Cc2ccccc2NS(=O)(=O)C(F)(F)F)C(=O)O1 (stereo not drawn) [Compound 1-160]	4 (90%-99% herbicidal effect, phytotoxicity)	4 (90%-99% herbicidal effect, phytotoxicity)	4 (90%-99% herbicidal effect, phytotoxicity)	4 (90%-99% herbicidal effect, phytotoxicity)
CCOC(=O)N(c1ccccc1CN1CCC(C)(c2ccccc2)OC1=O)S(=O)(=O)C(F)(F)F (stereo not drawn) [Compound 1-162]	4 (90%-99% herbicidal effect, phytotoxicity)	4 (90%-99% herbicidal effect, phytotoxicity)	4 (90%-99% herbicidal effect, phytotoxicity)	4 (90%-99% herbicidal effect, phytotoxicity)
CC1(c2ccccc2Cl)CCN(Cc2ccccc2NS(=O)(=O)C(F)(F)F)C(=O)O1 (stereo not drawn) [Compound 1-172]	4 (90%-99% herbicidal effect, phytotoxicity)	4 (90%-99% herbicidal effect, phytotoxicity)	4 (90%-99% herbicidal effect, phytotoxicity)	4 (90%-99% herbicidal effect, phytotoxicity)
CCOC(=O)N(c1ccccc1CN1CCC(C)(c2ccccc2Cl)OC1=O)S(=O)(=O)C(F)(F)F (stereo not drawn) [Compound 1-174]	4 (90%-99% herbicidal effect, phytotoxicity)	4 (90%-99% herbicidal effect, phytotoxicity)	4 (90%-99% herbicidal effect, phytotoxicity)	4 (90%-99% herbicidal effect, phytotoxicity)
CC(C)COC(=O)N(c1ccccc1CN1CCC(C)(c2ccccc2Cl)OC1=O)S(=O)(=O)C(F)(F)F (stereo not drawn) [Compound 1-177]	4 (90%-99% herbicidal effect, phytotoxicity)	4 (90%-99% herbicidal effect, phytotoxicity)	4 (90%-99% herbicidal effect, phytotoxicity)	4 (90%-99% herbicidal effect, phytotoxicity)
O=C1OC(c2ccccc2)(C2CC2)CCN1Cc1ccccc1NS(=O)(=O)C(F)(F)F (stereo not drawn) [Compound 1-183]	4 (90%-99% herbicidal effect, phytotoxicity)	4 (90%-99% herbicidal effect, phytotoxicity)	4 (90%-99% herbicidal effect, phytotoxicity)	4 (90%-99% herbicidal effect, phytotoxicity)
O=C1OC(c2ccc(Cl)cc2)(C2CC2)CCN1Cc1ccccc1NS(=O)(=O)C(F)(F)F (stereo not drawn) [Compound 1-195]	4 (90%-99% herbicidal effect, phytotoxicity)	4 (90%-99% herbicidal effect, phytotoxicity)	4 (90%-99% herbicidal effect, phytotoxicity)	4 (90%-99% herbicidal effect, phytotoxicity)
CCOC(=O)N(c1ccccc1CN1CCC(c2ccc(Cl)cc2)(C2CC2)OC1=O)S(=O)(=O)C(F)(F)F (stereo not drawn) [Compound 1-197]	4 (90%-99% herbicidal effect, phytotoxicity)	4 (90%-99% herbicidal effect, phytotoxicity)	4 (90%-99% herbicidal effect, phytotoxicity)	4 (90%-99% herbicidal effect, phytotoxicity)
O=C1OC(c2ccccc2)(C2CCC2)CCN1Cc1ccccc1NS(=O)(=O)C(F)(F)F (stereo not drawn) [Compound 1-206]	4 (90%-99% herbicidal effect, phytotoxicity)	4 (90%-99% herbicidal effect, phytotoxicity)	4 (90%-99% herbicidal effect, phytotoxicity)	4 (90%-99% herbicidal effect, phytotoxicity)
O=C1OC(c2ccccc2)(c2ccccc2)CCN1Cc1ccccc1NS(=O)(=O)C(F)(F)F [Compound 1-217]	4 (90%-99% herbicidal effect, phytotoxicity)	4 (90%-99% herbicidal effect, phytotoxicity)	4 (90%-99% herbicidal effect, phytotoxicity)	4 (90%-99% herbicidal effect, phytotoxicity)
CCOC(=O)N(c1ccccc1CN1CCC(c2ccccc2)(c2ccccc2)OC1=O)S(=O)(=O)C(F)(F)F [Compound 1-219]	4 (90%-99% herbicidal effect, phytotoxicity)	4 (90%-99% herbicidal effect, phytotoxicity)	4 (90%-99% herbicidal effect, phytotoxicity)	4 (90%-99% herbicidal effect, phytotoxicity)
O=C1OC(c2ccccc2)(C(F)(F)F)CCN1Cc1ccccc1NS(=O)(=O)C(F)(F)F (stereo not drawn) [Compound 1-228]	5 (100% herbicidal effect, phytotoxicity)	5 (100% herbicidal effect, phytotoxicity)	5 (100% herbicidal effect, phytotoxicity)	4 (90%-99% herbicidal effect, phytotoxicity)
O=C1OC(c2ccccc2F)CCN1Cc1ccccc1NS(=O)(=O)C(F)(F)F (stereo not drawn) [Compound 1-250]	5 (100% herbicidal effect, phytotoxicity)	5 (100% herbicidal effect, phytotoxicity)	5 (100% herbicidal effect, phytotoxicity)	5 (100% herbicidal effect, phytotoxicity)
CCOC(=O)N(c1ccccc1CN1CCC(c2ccccc2F)OC1=O)S(=O)(=O)C(F)(F)F (stereo not drawn) [Compound 1-252]	5 (100% herbicidal effect, phytotoxicity)	4 (90%-99% herbicidal effect, phytotoxicity)	5 (100% herbicidal effect, phytotoxicity)	4 (90%-99% herbicidal effect, phytotoxicity)
